In ChEMBL document CHEMBL1145498, “A systematic interaction map of validated kinase inhibitors with Ser/Thr kinases” (Proc Natl Acad Sci U S A, 2007) one finds ΔTm data, which are given here for 6 molecules.

In general, ΔTm refers to the change in melting temperature against a reference sample.

The target in experiment [1] is Calcium/calmodulin-dependent protein kinase type 1G (Homo sapiens) (UniProt Q96NX5).
In experiment [2] the target is Calcium/calmodulin-dependent protein kinase type II subunit alpha (Homo sapiens) (UniProt Q9UQM7).
Experiment [3] has as its target Calcium/calmodulin-dependent protein kinase type II subunit beta (Homo sapiens) (UniProt Q13554).
Experiment [4] has as its target Calcium/calmodulin-dependent protein kinase type II subunit delta (Homo sapiens) (UniProt Q13557).
The target of experiment [5] is Cyclin-dependent kinase 6 (Homo sapiens) (UniProt Q00534).
In experiment [6] the target is Serine/threonine-protein kinase Chk2 (Homo sapiens, UniProt O96017).
Experiment [7] addresses Glycogen synthase kinase-3 beta (Homo sapiens, UniProt P49841).
In experiment [8] the target is Tyrosine-protein kinase JAK1 (Homo sapiens) (UniProt P23458).
For experiment [9], the target named is T1, Mitogen-activated protein kinase kinase kinase 5 (Homo sapiens) (UniProt Q99683).
T1 sequence (whole entry): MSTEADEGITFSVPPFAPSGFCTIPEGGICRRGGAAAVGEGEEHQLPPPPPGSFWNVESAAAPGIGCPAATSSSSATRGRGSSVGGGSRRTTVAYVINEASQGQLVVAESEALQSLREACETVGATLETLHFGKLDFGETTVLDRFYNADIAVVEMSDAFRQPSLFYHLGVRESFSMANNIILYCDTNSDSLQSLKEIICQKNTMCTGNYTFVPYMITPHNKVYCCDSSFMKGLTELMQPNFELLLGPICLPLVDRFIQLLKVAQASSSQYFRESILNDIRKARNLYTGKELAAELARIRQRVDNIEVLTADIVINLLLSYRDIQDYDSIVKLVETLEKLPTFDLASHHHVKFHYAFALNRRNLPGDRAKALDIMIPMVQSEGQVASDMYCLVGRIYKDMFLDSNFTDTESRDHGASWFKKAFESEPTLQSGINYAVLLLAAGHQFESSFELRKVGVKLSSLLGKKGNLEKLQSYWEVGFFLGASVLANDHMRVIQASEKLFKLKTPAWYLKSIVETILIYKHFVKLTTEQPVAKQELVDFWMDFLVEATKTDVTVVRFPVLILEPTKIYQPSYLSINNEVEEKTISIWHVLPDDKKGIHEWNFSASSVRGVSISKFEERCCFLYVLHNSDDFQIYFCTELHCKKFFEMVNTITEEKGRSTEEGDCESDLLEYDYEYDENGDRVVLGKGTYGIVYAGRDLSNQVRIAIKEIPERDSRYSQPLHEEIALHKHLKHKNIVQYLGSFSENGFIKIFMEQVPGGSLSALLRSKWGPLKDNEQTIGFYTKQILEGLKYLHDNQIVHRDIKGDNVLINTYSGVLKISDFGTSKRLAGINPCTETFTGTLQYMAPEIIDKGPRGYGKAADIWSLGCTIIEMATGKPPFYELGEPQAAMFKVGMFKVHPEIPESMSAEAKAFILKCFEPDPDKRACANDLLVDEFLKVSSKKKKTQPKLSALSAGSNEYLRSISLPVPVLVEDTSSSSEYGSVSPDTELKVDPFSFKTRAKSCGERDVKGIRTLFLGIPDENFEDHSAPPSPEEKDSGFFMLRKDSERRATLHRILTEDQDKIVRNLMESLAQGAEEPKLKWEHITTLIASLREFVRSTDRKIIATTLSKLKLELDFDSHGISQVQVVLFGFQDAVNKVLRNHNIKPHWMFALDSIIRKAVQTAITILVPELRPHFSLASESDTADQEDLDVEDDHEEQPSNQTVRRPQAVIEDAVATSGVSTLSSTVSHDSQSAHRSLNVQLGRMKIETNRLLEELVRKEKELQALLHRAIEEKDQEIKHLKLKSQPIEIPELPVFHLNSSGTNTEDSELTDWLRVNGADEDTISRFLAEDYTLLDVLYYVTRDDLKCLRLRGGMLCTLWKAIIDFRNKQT

The target in experiment [10] is Mitogen-activated protein kinase 3 (Homo sapiens, UniProt P27361).
Experiment [11] has as its target Serine/threonine-protein kinase 26 (Homo sapiens) (UniProt Q9P289).
Experiment [12] concerns the target Serine/threonine-protein kinase Nek6 (Homo sapiens) (UniProt Q9HC98).
Experiment [13] addresses Serine/threonine-protein kinase PAK 5 (Homo sapiens) (UniProt Q9P286).
Experiment [14] has as its target Serine/threonine-protein kinase pim-2 (Homo sapiens, UniProt Q9P1W9).
The target of experiment [15] is Serine/threonine-protein kinase PLK1 (Homo sapiens) (UniProt P53350).
For experiment [16], the target named is Serine/threonine-protein kinase 10 (Homo sapiens) (UniProt O94804).
The target of experiment [17] is Serine/threonine-protein kinase 16 (Homo sapiens) (UniProt O75716).
Experiment [18] deals with T2, Serine/threonine-protein kinase 17A (Homo sapiens) (UniProt Q9UEE5).
T2 sequence (whole entry): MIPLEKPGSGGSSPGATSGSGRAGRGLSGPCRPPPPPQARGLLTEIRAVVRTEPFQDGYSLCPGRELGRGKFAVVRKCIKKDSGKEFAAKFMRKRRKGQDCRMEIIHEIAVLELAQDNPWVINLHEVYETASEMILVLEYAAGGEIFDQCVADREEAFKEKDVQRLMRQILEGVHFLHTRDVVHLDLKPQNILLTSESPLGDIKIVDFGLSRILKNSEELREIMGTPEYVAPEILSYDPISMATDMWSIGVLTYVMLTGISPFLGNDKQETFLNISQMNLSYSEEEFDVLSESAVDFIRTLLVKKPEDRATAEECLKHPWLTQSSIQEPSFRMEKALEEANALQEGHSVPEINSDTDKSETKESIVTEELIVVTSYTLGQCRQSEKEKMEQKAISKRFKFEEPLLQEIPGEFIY

For experiment [19], the target named is Serine/threonine-protein kinase 26 (Homo sapiens) (UniProt Q9P289). This is another data set of the same source.
The target of experiment [20] is TRAF2 and NCK-interacting protein kinase (Homo sapiens) (UniProt Q9UKE5).
The target in experiment [21] is Serine/threonine-protein kinase VRK2 (Homo sapiens) (UniProt Q86Y07).

Sequence of TRAF2 and NCK-interacting protein kinase (Homo sapiens) (Q9UKE5 whole entry, looked up): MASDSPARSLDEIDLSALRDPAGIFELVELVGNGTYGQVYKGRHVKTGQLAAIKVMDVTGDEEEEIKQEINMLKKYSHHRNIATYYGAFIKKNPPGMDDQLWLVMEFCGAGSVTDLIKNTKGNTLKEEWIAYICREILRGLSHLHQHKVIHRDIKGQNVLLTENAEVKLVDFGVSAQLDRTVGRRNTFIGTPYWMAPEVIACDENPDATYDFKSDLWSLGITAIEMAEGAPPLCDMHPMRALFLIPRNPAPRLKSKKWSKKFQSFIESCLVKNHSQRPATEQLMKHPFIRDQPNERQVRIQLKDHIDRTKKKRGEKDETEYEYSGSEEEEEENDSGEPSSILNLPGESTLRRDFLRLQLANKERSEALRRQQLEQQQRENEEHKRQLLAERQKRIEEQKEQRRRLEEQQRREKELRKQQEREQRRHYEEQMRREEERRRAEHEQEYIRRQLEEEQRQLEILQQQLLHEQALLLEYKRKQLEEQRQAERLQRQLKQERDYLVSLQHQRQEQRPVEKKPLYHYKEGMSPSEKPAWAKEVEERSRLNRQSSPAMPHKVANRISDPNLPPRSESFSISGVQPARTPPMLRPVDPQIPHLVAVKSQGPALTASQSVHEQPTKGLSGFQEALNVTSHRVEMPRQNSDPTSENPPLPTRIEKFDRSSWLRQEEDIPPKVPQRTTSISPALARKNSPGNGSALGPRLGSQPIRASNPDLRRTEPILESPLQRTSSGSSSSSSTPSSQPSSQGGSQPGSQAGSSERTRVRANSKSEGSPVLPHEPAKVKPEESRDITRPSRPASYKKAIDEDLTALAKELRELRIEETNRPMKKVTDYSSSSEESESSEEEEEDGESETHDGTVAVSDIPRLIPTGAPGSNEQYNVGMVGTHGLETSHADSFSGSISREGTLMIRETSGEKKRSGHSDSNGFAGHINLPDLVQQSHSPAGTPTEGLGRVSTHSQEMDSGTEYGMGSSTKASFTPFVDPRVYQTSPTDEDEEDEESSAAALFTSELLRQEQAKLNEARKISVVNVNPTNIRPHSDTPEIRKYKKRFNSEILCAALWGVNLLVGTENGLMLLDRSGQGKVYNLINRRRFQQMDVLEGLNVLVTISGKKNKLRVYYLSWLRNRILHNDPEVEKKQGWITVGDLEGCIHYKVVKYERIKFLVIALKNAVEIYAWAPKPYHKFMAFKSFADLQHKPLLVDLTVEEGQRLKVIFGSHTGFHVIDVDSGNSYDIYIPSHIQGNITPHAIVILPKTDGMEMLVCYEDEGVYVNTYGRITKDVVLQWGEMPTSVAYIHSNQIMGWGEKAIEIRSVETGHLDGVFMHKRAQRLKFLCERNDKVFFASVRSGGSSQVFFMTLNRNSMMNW
Sequence of Calcium/calmodulin-dependent protein kinase type II subunit delta (Homo sapiens) (Q13557 whole entry): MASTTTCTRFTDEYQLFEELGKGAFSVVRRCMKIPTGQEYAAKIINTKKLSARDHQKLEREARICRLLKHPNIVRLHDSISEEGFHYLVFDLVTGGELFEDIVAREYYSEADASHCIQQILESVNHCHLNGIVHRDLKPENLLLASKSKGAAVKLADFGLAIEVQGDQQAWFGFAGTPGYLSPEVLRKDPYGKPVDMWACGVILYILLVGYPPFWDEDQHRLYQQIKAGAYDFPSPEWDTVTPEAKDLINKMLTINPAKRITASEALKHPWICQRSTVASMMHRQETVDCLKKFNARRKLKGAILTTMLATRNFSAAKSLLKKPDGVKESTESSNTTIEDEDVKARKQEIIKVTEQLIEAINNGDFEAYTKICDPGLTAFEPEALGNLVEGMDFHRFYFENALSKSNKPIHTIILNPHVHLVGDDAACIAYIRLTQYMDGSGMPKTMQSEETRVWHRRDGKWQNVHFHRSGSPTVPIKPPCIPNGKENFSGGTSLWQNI
Sequence of Calcium/calmodulin-dependent protein kinase type 1G (Homo sapiens) (Q96NX5 whole entry): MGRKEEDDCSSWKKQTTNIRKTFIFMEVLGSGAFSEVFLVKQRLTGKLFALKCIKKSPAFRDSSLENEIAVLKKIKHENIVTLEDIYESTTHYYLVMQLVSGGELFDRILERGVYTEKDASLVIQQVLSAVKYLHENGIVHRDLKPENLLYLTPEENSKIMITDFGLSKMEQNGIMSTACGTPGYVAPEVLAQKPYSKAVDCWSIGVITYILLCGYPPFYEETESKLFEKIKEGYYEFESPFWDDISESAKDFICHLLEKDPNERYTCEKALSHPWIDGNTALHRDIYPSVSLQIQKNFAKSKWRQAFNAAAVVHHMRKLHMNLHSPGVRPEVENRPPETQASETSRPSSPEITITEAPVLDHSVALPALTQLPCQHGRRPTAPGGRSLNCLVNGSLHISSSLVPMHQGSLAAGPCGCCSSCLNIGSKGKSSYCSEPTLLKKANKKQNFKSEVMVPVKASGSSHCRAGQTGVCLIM
Sequence of Serine/threonine-protein kinase pim-2 (Q9P1W9 whole entry, looked up): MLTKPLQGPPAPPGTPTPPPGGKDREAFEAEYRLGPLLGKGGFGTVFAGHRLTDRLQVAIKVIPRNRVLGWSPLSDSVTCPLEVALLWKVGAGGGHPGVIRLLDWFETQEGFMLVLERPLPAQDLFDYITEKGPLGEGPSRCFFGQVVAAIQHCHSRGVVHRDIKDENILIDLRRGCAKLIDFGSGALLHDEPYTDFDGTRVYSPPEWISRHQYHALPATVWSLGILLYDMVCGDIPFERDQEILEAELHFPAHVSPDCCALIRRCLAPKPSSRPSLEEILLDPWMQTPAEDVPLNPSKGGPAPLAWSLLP
Sequence of Serine/threonine-protein kinase Nek6 (Homo sapiens) (Q9HC98 whole entry): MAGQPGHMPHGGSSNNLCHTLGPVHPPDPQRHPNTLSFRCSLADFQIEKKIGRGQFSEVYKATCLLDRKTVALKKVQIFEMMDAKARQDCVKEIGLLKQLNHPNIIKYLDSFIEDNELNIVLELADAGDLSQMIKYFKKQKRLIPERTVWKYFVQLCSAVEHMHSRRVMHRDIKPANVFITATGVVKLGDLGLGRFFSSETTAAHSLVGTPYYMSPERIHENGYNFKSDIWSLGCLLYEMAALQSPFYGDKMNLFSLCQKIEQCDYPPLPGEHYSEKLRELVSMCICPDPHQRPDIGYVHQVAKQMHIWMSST
Sequence of Serine/threonine-protein kinase 10 (Homo sapiens) (O94804 whole entry, looked up): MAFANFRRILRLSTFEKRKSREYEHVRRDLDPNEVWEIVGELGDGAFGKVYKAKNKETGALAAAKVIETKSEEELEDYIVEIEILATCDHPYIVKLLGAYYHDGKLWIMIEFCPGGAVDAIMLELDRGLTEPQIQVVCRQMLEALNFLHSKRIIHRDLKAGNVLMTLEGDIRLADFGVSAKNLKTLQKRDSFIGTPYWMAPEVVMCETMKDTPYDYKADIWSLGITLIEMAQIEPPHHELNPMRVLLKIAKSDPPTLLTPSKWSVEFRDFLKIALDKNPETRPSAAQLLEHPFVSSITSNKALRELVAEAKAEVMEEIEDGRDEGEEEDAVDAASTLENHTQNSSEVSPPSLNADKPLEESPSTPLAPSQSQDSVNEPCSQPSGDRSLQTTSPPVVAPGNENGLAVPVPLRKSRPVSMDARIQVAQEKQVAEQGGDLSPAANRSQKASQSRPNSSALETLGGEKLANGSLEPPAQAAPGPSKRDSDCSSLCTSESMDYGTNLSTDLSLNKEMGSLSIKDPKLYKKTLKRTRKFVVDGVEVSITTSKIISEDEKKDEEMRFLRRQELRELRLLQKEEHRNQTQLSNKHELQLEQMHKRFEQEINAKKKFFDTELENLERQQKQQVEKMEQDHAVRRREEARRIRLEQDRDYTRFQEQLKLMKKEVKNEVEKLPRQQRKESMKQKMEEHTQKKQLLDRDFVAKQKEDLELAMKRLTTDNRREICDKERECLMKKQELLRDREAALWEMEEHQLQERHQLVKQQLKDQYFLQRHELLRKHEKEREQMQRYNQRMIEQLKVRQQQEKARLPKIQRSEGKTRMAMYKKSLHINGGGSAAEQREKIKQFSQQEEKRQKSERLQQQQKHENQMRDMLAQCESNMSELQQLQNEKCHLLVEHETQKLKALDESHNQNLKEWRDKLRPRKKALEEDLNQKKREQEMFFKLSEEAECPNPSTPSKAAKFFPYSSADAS
Sequence of Calcium/calmodulin-dependent protein kinase type II subunit alpha (Homo sapiens) (Q9UQM7 whole entry): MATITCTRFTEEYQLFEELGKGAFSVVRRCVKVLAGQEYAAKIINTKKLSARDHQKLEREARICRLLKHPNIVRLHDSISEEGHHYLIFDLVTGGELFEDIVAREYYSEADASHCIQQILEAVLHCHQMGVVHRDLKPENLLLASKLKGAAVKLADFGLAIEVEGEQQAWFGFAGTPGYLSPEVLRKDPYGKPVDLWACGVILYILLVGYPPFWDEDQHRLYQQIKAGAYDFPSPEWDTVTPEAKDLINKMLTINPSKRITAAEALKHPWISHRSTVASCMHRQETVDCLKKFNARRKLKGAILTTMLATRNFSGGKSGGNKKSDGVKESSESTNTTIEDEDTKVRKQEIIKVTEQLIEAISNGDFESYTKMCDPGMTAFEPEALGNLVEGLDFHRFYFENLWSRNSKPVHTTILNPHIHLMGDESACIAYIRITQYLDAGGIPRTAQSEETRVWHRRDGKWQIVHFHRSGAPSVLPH
Sequence of Serine/threonine-protein kinase 26 (Homo sapiens) (Q9P289 2-416 limits assumed): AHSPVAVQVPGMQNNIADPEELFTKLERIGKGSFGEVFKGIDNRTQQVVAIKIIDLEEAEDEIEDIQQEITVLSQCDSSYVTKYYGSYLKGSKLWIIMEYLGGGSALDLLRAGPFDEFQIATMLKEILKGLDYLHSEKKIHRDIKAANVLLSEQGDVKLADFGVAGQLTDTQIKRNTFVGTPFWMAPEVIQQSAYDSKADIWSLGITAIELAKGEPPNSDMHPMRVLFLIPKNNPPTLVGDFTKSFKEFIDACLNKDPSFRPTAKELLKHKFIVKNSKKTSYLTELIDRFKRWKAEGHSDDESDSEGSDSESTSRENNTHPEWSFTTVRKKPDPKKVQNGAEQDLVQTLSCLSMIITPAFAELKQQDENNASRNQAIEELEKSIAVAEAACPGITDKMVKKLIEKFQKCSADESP

For the molecule `O=C1C=C2C(=Nc3c2c2c(c4c3=NC3=C4CCC=C3)C=NC=2)CC1`, the thermal shift (ΔTm) in experiment [1] was 3.6 °C; in experiment [2], 3.7 °C; in experiment [3], 0.1 °C; in experiment [4] it was 2 °C; in experiment [5], 2.7 °C; in experiment [6] it was 7.9 °C. Also, the ΔTm in experiment [7] worked out at 2.3 °C; in experiment [8], 6.9 °C; in experiment [9], 5.7 °C; in experiment [10] it was 0.6 °C; in [11], 4.8 °C; in experiment [12], 0.5 °C. Besides, the thermal shift (ΔTm) in [13] is 2.7 °C; in [14], 5.2 °C; in [15] it was 11.9 °C; in experiment [16], 3.9 °C; in experiment [17], 11.5 °C; in experiment [18], 2.6 °C. In addition, the ΔTm came to 8.5 °C in experiment [19], 1.3 °C in [20] and 4.7 °C in [21].

As to `COc1cc2ncnc(Nc3ccc(F)c(Cl)c3)c2cc1OCCCN1CCOCC1`, the ΔTm in [1] was found to be 1 °C; in [2], 0.3 °C; in experiment [3], 0.3 °C; in experiment [4], 0.1 °C; in experiment [5] it was 0.6 °C; in experiment [6] it was 3.1 °C. In addition, the ΔTm in experiment [7] was 0.9 °C; in experiment [8], 1.2 °C; in experiment [9], 0.1 °C; in experiment [10] it was -0.2 °C; in experiment [11] it was 0 °C; in [12] it was -0.4 °C. The ΔTm in [13] is 0.2 °C; in [14], 0.6 °C; in experiment [15] it was 1.2 °C; in experiment [16] it was 0 °C; in experiment [17], 3.1 °C; in experiment [18], 0.6 °C. For the same molecule, the results for the ΔTm in [19], in experiment [20] and in experiment [21] were 1.2 °C, -1 °C and 0.3 °C, respectively.

For `Cc1cc2ncc(-c3ccccc3)nc2cc1C`, the ΔTm in experiment [1] is 0.7 °C; in experiment [2], 1 °C; in [3] it was 0.8 °C; in experiment [4], 0.4 °C; in experiment [5] it was 0.4 °C; in [6], -0.3 °C. Moreover, the ΔTm was -0.6 °C in experiment [7]; 1.3 °C in experiment [8]; 0.3 °C in experiment [9]; -0.6 °C in [10]; -0.5 °C in experiment [11]; 0.2 °C in [12]. Further, the shift in melting temperature (ΔTm) worked out at 0.8 °C in experiment [13]; 0.4 °C in [14]; 0.7 °C in [15]; 1 °C in experiment [16]; 0.5 °C in experiment [17]; 1.5 °C in experiment [18]. Also, the thermal shift (ΔTm) in [19] came out at 1.2 °C; in experiment [20], 0.6 °C; in experiment [21], 0.4 °C.

On to `O=C1Nc2ccc(I)cc2/C1=C1/Nc2ccccc2/C1=N\O`, for which the ΔTm in experiment [1] was 0.5 °C; in experiment [2], 4.5 °C; in [3], 1.2 °C; in experiment [4], 3.6 °C; in [5], 0.8 °C; in experiment [6], 1.9 °C. In addition, the ΔTm in experiment [7] was 8.8 °C; in experiment [8], 8.3 °C; in experiment [9] it was 5.7 °C; in experiment [10], 2.1 °C; in experiment [11], 4.5 °C; in [12], -2 °C. Further, the ΔTm in [13] was 1.3 °C; in experiment [14], -0.5 °C; in [15], -0.7 °C; in experiment [16], 0 °C; in [17] it was 1.9 °C; in experiment [18], 7 °C. The ΔTm came to 0 °C in experiment [19], 5.2 °C in experiment [20] and 4.3 °C in experiment [21].

Take `Oc1cccc(-c2nc(N3CCOCC3)c3oc4ncccc4c3n2)c1`: the shift in melting temperature (ΔTm) in experiment [1] was 0.1 °C; in experiment [2] it was -0.3 °C; in experiment [3], 0.1 °C; in [4], -0.6 °C; in [5], -0.4 °C; in [6], 1.4 °C. Further, the shift in melting temperature (ΔTm) in [7] is 0.1 °C; in experiment [8], 0.1 °C; in experiment [9], -0.4 °C; in [10], 0 °C; in experiment [11], 0.2 °C; in experiment [12] it was 0.4 °C. Also, the ΔTm in experiment [13] is 0.8 °C; in [14], 0.1 °C; in experiment [15], 0.3 °C; in experiment [16] it was -0.4 °C; in [17], 0.3 °C; in experiment [18], 1.5 °C. Moreover, the ΔTm in experiment [19] was found to be 0.9 °C; in experiment [20], 0.3 °C; in experiment [21] it was 0.4 °C.

In the case of `O=C1Nc2ccc(I)cc2/C1=C\c1cc(Br)c(O)c(Br)c1`, the shift in melting temperature (ΔTm) in [1] was -1.8 °C; in experiment [2], -0.8 °C; in [3] it was -0.1 °C; in experiment [4] it was 0.9 °C; in experiment [5], 0.3 °C; in experiment [6] it was 0.1 °C. Besides, the shift in melting temperature (ΔTm) in experiment [7] is 3.6 °C; in [8] it was 4.5 °C; in experiment [9], 1.7 °C; in [10] it was 0.5 °C; in experiment [11], -0.4 °C; in experiment [12], 0 °C. Moreover, the ΔTm in [13] was 1 °C; in [14], 6.8 °C; in [15] it was 0.5 °C; in experiment [16], 0.5 °C; in experiment [17], 1 °C; in [18], 4.8 °C. The values for the ΔTm in experiment [19], in [20] and in [21] were 1.6 °C, 3.9 °C and 1.7 °C, respectively.
